Source: US11186534B2, “Derivatives of sulindac can protect normal cells against oxidative damage” (University of South Alabama, priority 2017, dated 2021)

How the values were obtained:
[1] = tested on: Retinal pigmented epithelium cells (ARPE-19); experiment: Cell viability assay: protection of RPE cells against oxidative damage from TBHP; format: cell-based; conditions: for Cyto-protective activity*: RPE cells, TBHP as oxidizing agent, relative to Sulindac; as to Cyto-protective activity*: key: active = more active than Sulindac; inactive = less active than Sulindac
Procedure: Cultured cells and reagents: Retinal pigmented epithelium cells (ARPE-19) were obtained from American Type Culture Collection (ATCC, Manassas, Va.) and cultured at 37° C. in 5% CO2. All chemicals were purchased from Sigma unless specified.
Cell viability assay: Cells were cultured and assayed for cell viability essentially as described previously (14). ARPE-19 cells were plated at 10,000 cells per well in a 96-well plate. The cells were grown for 18-20 hours, the medium discarded in aseptic conditions and replaced with fresh culture medium containing the indicated drug concentration. The plates were incubated for 24 hours at 37° C. in a 5% CO2 incubator in the presence of sulindac or Compound 9. To examine the treatment effects on oxidative damage to RPE cells, cells were washed and incubated in media without serum with various concentrations of tert-butyl hydroperoxide (TBHP) for an additional 24h. The culture medium was then discarded and the cells were thoroughly rinsed in PBS. Cell viability was determined by using the Cell Titer 96 Aqueous One Cell Proliferation Assay (Promega) according to the manufacturer's instructions. The assay utilizes a tetrazolium compound that is converted into a water-soluble formazan by the action of cellular NADH oxidase activity in metabolically active cells. The formazan was quantified by measuring the absorbance at 490 nm using a colorimetric microtiter plate reader (SpectraMax Plus; Molecular Devices).
In the present studies, a series of compounds were identified as having the ability to protect RPE cells against oxidative damage using tert-butyl hydroperoxide (TBHP), an organic peroxide, as an oxidizing agent (10).

[2] = tested on: cells; conditions: background; cited from earlier work
[3] = tested on: cells; conditions: background; cited from earlier work; remark: listed apart in the source
[4] = tested on: COX; conditions: background; cited from earlier work
[5] = tested on: rat intact hearts (Langendorff model); experiment: Langendorff model of ischemia/reperfusion injury, LDH release; format: in vivo, Sprague Dawley rats; conditions: 0.7 mg/kg i.p. daily for 48 h; FIG. 9
Procedure: The ex vivo Langendorff procedure is a well-established preparation used to investigate heart physiology, ischemia/reperfusion injury, and other cardiovascular insults (23, 24; also see, e.g., reference 22). Sprague Dawley rats (275-325g) were administered either no drug or Compound 9 daily (at 0.7 mg/kg) for a total of two days (two administrations in total). Forty-eight hours after the start of drug exposure, hearts were removed and exposed to 45 min no flow ischemia and 2 h reperfusion in the Langendorff model (hearts were first equilibrated in KHB buffer for 10 min and then subjected to 45 min ischemia followed by 2 h reperfusion with KHB buffer), in the absence of drug.
In LDH and TTC assays for the Langendorff Preparation, coronary effluent samples (500 μL) from the Langendorff preparation were obtained upon attachment of excised heart, every 15 min before ischemia, immediately after 45 min ischemia, and at 15 min intervals during reperfusion. LDH was measured (using a Cytotox-96 nonradioactive cytotoxicity assay kit (Promega), with the absorbance read at 490 nm). Immediately upon completion, the heart was sliced into 2-mm cross-sectional pieces and slices were incubated for 30 min with 1% 2,3,5-triphenyl tetrazolium chloride (TTC) stain in Krebs-Henseleit buffer (KHB) (pH=7.4) at 37° C. to distinguish between viable (red) and nonviable (white) tissue. Tissue slices were stored overnight in 10% formaldehyde before measurement of infarct size using NIH-Image J software.
The protective (preconditioning) effect of Compound 9 was evaluated in an art-recognized Langendorff model of ischemia/reperfusion injury. Compound 9 was administered via i.p. injection to test animals daily for two days, and animal hearts were then removed for performance of the Langendorff procedure (described above and known in the art).

SMILES	Cyto-protective activity* [1]	also measured
CC1=C(CC(=O)[O-])c2cc(F)ccc2/C1=C\c1ccc(N(C)C)cc1.[Na+] [Compound 2, sodium (Z)-2-(1-(4-(dimethylamino)benzylidene)-5-fluoro-2-methyl-1H-inden-3-yl)acetate]	inactive	
COc1ccc2c(c1)/C(=C\c1cc(OC)c(OC)c(OC)c1)C(C)=C2CC(=O)O [Compound 3, (Z)-2-(6-methoxy-2-methyl-1-(3,4,5-trimethoxybenzylidene)-1H-inden-3-yl)acetic acid]	inactive	
COc1ccc2c(c1)C(CC(=O)O)=C(C)/C2=C/c1ccc(SC(F)(F)F)cc1 [Compound 4, (Z)-2-(5-methoxy-2-methyl-1-(4-((trifluoromethyl)thio)benzylidene)-1H-inden-3-yl)acetic acid]	inactive	
COc1ccc2c(c1)C(CC(=O)O)=C(C)/C2=C/c1cc(OC)c(Br)c(OC)c1 [Compound 5, (Z)-2-(1-(4-bromo-3,5-dimethoxybenzylidene)-5-methoxy-2-methyl-1H-inden-3-yl)acetic acid]	inactive	
COc1ccc2c(c1)C(CC(=O)O)=C(C)/C2=C/c1ccc(N(C)C)cc1 [Compound 6, (Z)-2-(1-(4-(dimethylamino)benzylidene)-5-methoxy-2-methyl-1H-inden-3-yl)acetic acid]	inactive	
COc1cc(/C=C2/C(C)=C(CC(=O)O)c3cc(OC)ccc32)cc(OC)c1 [Compound 7, (Z)-2-(1-(3,5-dimethoxybenzylidene)-5-methoxy-2-methyl-1H-inden-3-yl)acetic acid]	inactive	
COc1cc(/C=C2/C(C)=C(CC(=O)O)c3cc(C)ccc32)cc(OC)c1OC [Compound 8, (Z)-2-(2,5-dimethyl-1-(3,4,5-trimethoxybenzylidene)-1H-inden-3-yl)acetic acid]	inactive	
COc1ccc2c(c1)C(CC(=O)O)=C(C)/C2=C/c1ccc(OCc2ccccc2)cc1 [Compound 10, (Z)-2-(1-(4-(benzyloxy)benzylidene)-5-methoxy-2-methyl-1H-inden-3-yl)acetic acid]	active	Effectiveness in protecting RPE cells from TBHP compared with sulindac ([1]; compound at 25 μM vs sulindac 200 μM, FIG. 2): equally effective as sulindac; Fold lower effective concentration relative to sulindac (RPE cell protection) ([1]; sulindac 200 μM, Compound 10 at 25 μM, Compound 9 at 10 μM): 8 ×
COc1ccc2c(c1)C(CC(=O)O)=C(C)/C2=C/c1cc(OC)c(OC)c(OC)c1 [Compound 11, (Z)-2-(5-methoxy-2-methyl-1-(3,4,5-trimethoxybenzylidene)-1H-inden-3-yl)acetic acid]	inactive	
COc1cc(/C=C2/C(C)=C(CC(=O)O)c3cc(F)ccc32)cc(OC)c1OC [Compound 12, (Z)-2-(5-fluoro-2-methyl-1-(3,4,5-trimethoxybenzylidene)-1H-inden-3-yl)acetic acid]	inactive	
COc1ccc2c(c1)C(CC(=O)O)=C(C)/C2=C/c1ccc(O)c(OC)c1 [Compound 13, (Z)-2-(1-(4-hydroxy-3-methoxybenzylidene)-5-methoxy-2-methyl-1H-inden-3-yl)acetic acid]	inactive	
COc1cc2c(cc1OC)/C(=C\c1ccc3c(c1)OCO3)C(C)=C2CC(=O)O [Compound 14, (Z)-2-(1-(benzo[d][1,3]dioxol-5-ylmethylene)-5,6-dimethoxy-2-methyl-1H-inden-3-yl)acetic acid]	inactive	
COc1ccc2c(c1)C(CC(=O)O)=C(C)/C2=C/c1ccc(OC)c(O)c1 [Compound 15, (Z)-2-(1-(3-hydroxy-4-methoxybenzylidene)-5-methoxy-2-methyl-1H-inden-3-yl)acetic acid]	inactive	
COc1ccc2c(c1)C(CC(=O)O)=C(C)/C2=C/c1cc(Br)c(O)c(OC)c1 [Compound 16, (Z)-2-(1-(3-bromo-4-hydroxy-5-methoxybenzylidene)-5-methoxy-2-methyl-1H-inden-3-yl)acetic acid]	inactive	
COc1cc(/C=C2/C(C)=C(CC(=O)O)c3cc(OC)c(OC)cc32)cc(OC)c1 [Compound 17, (Z)-2-(1-(3,5-dimethoxybenzylidene)-5,6-dimethoxy-2-methyl-1H-inden-3-yl)acetic acid]	inactive	
COc1cc2c(cc1OC)/C(=C\c1cc(OC)c(O)c(OC)c1)C(C)=C2CC(=O)NCc1ccco1 [Compound 18, (Z)-N-(furan-2-ylmethyl)-2-(1-(4-hydroxy-3,5-dimethoxybenzylidene)-5,6-dimethoxy-2-methyl-1H-inden-3-yl)acetamide]	inactive	
COc1ccc2c(c1)C(Cc1nc3cnccc3[nH]1)=C(C)/C2=C/c1cc(OC)c(OC)c(OC)c1 [Compound 19, (Z)-2-((5-methoxy-2-methyl-1-(3,4,5-trimethoxybenzylidene)-1H-inden-3-yl)methyl)-1H-imidazo[4,5-c]pyridine]	inactive	
COc1cc2c(cc1OC)/C(=C\c1cc(OC)c(OC)c(OC)c1)C(C)=C2CC(=O)NCc1ccco1 [Compound 20, (Z)-2-(5,6-dimethoxy-2-methyl-1-(3,4,5-trimethoxybenzylidene)-1H-inden-3-yl)-N-(furan-2-ylmethyl)acetamide]	inactive	
COc1cc(/C=C2/C(C)=C(CC(=O)NCc3ccco3)c3cc(OC)c(OC)cc32)cc(OC)c1 [Compound 21, (Z)-2-(1-(3,5-dimethoxybenzylidene)-5,6-dimethoxy-2-methyl-1H-inden-3-yl)-N-(furan-2-ylmethyl)acetamide]	inactive	
COc1cc2c(cc1OC)/C(=C\c1ccc(N(C)C)cc1)C(C)=C2CC(=O)NCc1ccco1 [Compound 22, (Z)-2-(1-(4-(dimethylamino)benzylidene)-5,6-dimethoxy-2-methyl-1H-inden-3-yl)-N-(furan-2-ylmethyl)acetamide]	inactive	
COc1ccc2c(c1)C(CC(=O)O)=C(C)/C2=C/c1cc(OC)c(O)c(OC)c1 [Compound 23, (Z)-2-(1-(4-hydroxy-3,5-dimethoxybenzylidene)-5-methoxy-2-methyl-1H-inden-3-yl)acetic acid]	inactive	
CC1=C(CC(=O)O)c2cc(F)ccc2/C1=C\c1ccc(S(C)(=O)=O)cc1 [Sulindac sulfone]		Toxicity to cells relative to sulindac [2]: significantly more toxic; Activity in protecting cells against oxidative damage relative to sulindac [3]: more active than sulindac; COX inhibitory activity [4]: no COX inhibitory activity
CC1=C(CC(=O)O)c2cc(F)ccc2/C1=C\c1ccc([S+](C)[O-])cc1 (centres unmarked) [sulindac]		TBHP concentration above which no longer protective for RPE cells ([1]; sulindac at 200 μM, FIG. 2): above 300 μM; Protective effect during the 45 min ischemia phase [5]: no protective effect; Protective effect during the 2 h reperfusion phase [5]: not as robust
